The source made the active and inactive calls. The calls are words filed in the database; no cut-off is given here.
Legend:
A549 [1] = assay: Anticancer activity against human A549 cells after 48 hrs by MTT assay; details: A549, 48 h
A-431 = assay: Anticancer activity against human A431 cells after 48 hrs by MTT assay; assay type: functional, cell-based; details: A-431, 48 h
COLO 205 = assay: Anticancer activity against human COLO205 cells after 48 hrs by MTT assay; assay type: functional, cell-based; details: COLO 205, 48 h
PC-3 = assay: Anticancer activity against human PC3 cells after 48 hrs by MTT assay; assay type: functional, cell-based; details: PC-3, 48 h
HEK293 = assay: Cytotoxicity activity against human HEK293 cells after 48 hrs by MTT assay; assay type: cell-based; details: hek293, 48 h
Nucleic Acid = assay: Binding affinity to calf thymus DNA assessed as change in melting temperature at compound:DNA molar ratio of 1:5 after 18 hrs at 37 degC by thermal denaturation assay (RVb = 0.3 to 3.1 degC); assay type: nucleic-acid assay; details: Bos taurus
A549 [2] = assay: Induction of cell cycle arrest in human A549 cells assessed as accumulation at G1 phase at 1 uM after 48 hrs by propidium iodide staining-based flow cytometry (reference value: 76.31 %); assay type: functional
A549 [3] = assay: Induction of cell cycle arrest in human A549 cells assessed as accumulation at S phase at 1 uM after 48 hrs by propidium iodide staining-based flow cytometry (reference value: 13.31 %); assay type: functional
A549 [4] = assay: Induction of cell cycle arrest in human A549 cells assessed as accumulation at G2 phase at 1 uM after 48 hrs by propidium iodide staining-based flow cytometry (reference value: 9.23 %); assay type: functional
A549 [5] = assay: Induction of cell cycle arrest in human A549 cells assessed as accumulation at Sub G1 phase at 1 uM after 48 hrs by propidium iodide staining-based flow cytometry (reference value: 0.67 %); assay type: functional
A549 [6] = assay: Induction of apoptosis in human A549 cells assessed as viable cells at 1 uM after 48 hrs by annexin V-FITC and propidium iodide staining method (RVb = 99.93 %); assay type: functional; details: A549, 48 h, read-out: Activity
A549 [7] = assay: Induction of apoptosis in human A549 cells assessed as early apoptotic cells at 1 uM after 48 hrs by annexin V-FITC and propidium iodide staining method (RVb = 0.01 %); assay type: functional
A549 [8] = assay: Induction of apoptosis in human A549 cells assessed as late apoptotic cells at 1 uM after 48 hrs by annexin V-FITC and propidium iodide staining method (RVb = 0.02 %); assay type: functional
A549 [9] = assay: Induction of apoptosis in human A549 cells assessed as necrotic cells at 1 uM after 48 hrs by annexin V-FITC and propidium iodide staining method (RVb = 0.04 %); assay type: functional
A549 [10] = assay: Induction of apoptosis in human A549 cells assessed as nuclear condensation at 2 uM after 48 hrs by Hoechst 33258 staining-based fluorescence microscopy relative to control; assay type: functional, cell-based

SMILES | IC50 (A549 [1]) [µM] | IC50 (A-431) [µM] | IC50 (COLO 205) [µM] | IC50 (PC-3) [µM] | Activity (HEK293) | ΔTm (Nucleic Acid) [°C] | Activity (A549 [2]) [%] | Activity (A549 [3]) [%] | Activity (A549 [4]) [%] | Activity (A549 [5]) [%] | viability at 1 µM (A549 [6]) [%] | Activity (A549 [7]) [%] | Activity (A549 [8]) [%] | Activity (A549 [9]) [%] | Activity (A549 [10])
COc1cc2c(cc1OCCCCCn1c(=C(C#N)C#N)c3cccc4cccc1c43)N=C[C@@H]1CCCN1C2=O | 5.86 | 4.46 | 25.9 | 36.5 | Non-toxic | 2.8 |  |  |  |  |  |  |  |  | 
COc1cc2c(cc1OCCCCCCn1c(=C(C#N)C#N)c3cccc4cccc1c43)N=C[C@@H]1CCCN1C2=O | 18.9 | 1.25 | 16.7 | 19.3 | Non-toxic | 2 |  |  |  |  |  |  |  |  | 
COc1cc2c(cc1OCCCN1c3cccc4cccc(c34)S1(=O)=O)N=C[C@@H]1CCCN1C2=O | 10 | 9.56 | 7.66 | 9.8 | Non-toxic | 4.9 |  |  |  |  |  |  |  |  | 
COc1cc2c(cc1OCCCCN1c3cccc4cccc(c34)S1(=O)=O)N=C[C@@H]1CCCN1C2=O | 19.6 | 3.34 | 3.71 | 14.9 | Non-toxic | 3.9 |  |  |  |  |  |  |  |  | 
COc1cc2c(cc1OCCCCN1C(=O)c3cccc4cccc1c34)N=C[C@@H]1CCCN1C2=O | 9.8 | 1.34 | 3.31 | 3.23 | Non-toxic | 4 |  |  |  |  |  |  |  |  | 
COc1cc2c(cc1O)N=C[C@@H]1CCCN1C2=O | 1.11 | 1.65 | 0.86 | 1.19 |  | 0.7 | 40.78 | 38.93 | 8.57 | 10.15 | 41.2 | 39.1 | 17.73 | 1.91 | Active
COc1cc2c(cc1OCCCn1c(=C(C#N)C#N)c3cccc4cccc1c43)N=C[C@@H]1CCCN1C2=O | 4.86 | 4.67 | 6.1 | 17.9 | Non-toxic | 3.4 |  |  |  |  |  |  |  |  | 

Source: ChEMBL document CHEMBL1926626, “Design and synthesis of benzo[c,d]indolone-pyrrolobenzodiazepine conjugates as potential anticancer agents” (Bioorg Med Chem, 2012)
